This is an account of results in ChEMBL document CHEMBL3046544, “Inhibitory Activity of N-Substituted-2-piperidones with a 1, 4-Benzodioxan Ring on Germination of Barnyardgrass” (J Pestic Sci, 2001).

Holding throughout (type): functional
Common to all, as to settings: 120 h

Test [1] deals with Echinochloa esculenta. As to the kind of experiment: Herbicidal activity against Echinochloa esculenta assessed as inhibition of seed germination at 100 nM after 5 days relative to control.
Test [2] deals with Echinochloa esculenta. As to the kind of experiment: Herbicidal activity against Echinochloa esculenta assessed as inhibition of seed germination at 1000 nM after 5 days relative to control.
The test system of test [3] is Echinochloa esculenta. As to the kind of experiment: Herbicidal activity against Echinochloa esculenta assessed as inhibition of seed germination at 10 nM after 5 days relative to control.
Test [4] concerns Echinochloa esculenta. As to the kind of experiment: Herbicidal activity against Echinochloa esculenta assessed as inhibition of seed germination at 1 nM after 5 days relative to control.

Turning to `CCCCCCC(O)C1CCCN(Cc2ccccc2)C1=O` (stereo not drawn), in test [1], the inhibition at 0.1 µM was found to be 50%. Besides, the inhibition at 1 µM in test [2] is > 90%. The inhibition at 0.01 µM in test [3] was < 49%. Moreover, the inhibition at 0.001 µM in test [4] is < 49%.

For the molecule `O=C1C(C(O)c2cccc(C(F)(F)F)c2)CCCN1Cc1ccccc1` (stereo not drawn), the inhibition at 0.1 µM in test [1] is 50%. For the same molecule, the inhibition at 1 µM in test [2] turned out to be 50%. Also, the inhibition at 0.01 µM in test [3] is < 49%. The inhibition at 0.001 µM in test [4] was < 49%.

For `O=C1C(C(O)c2ccc3c(c2)OCCO3)CCN1C/C=C/c1ccccc1` (mixture of isomers), the inhibition at 0.1 µM in test [1] was < 49%. In addition, the inhibition at 1 µM in test [2] is > 90%. Moreover, in test [3], the inhibition at 0.01 µM is < 49%. The inhibition at 0.001 µM in test [4] was < 49%.

In the case of `O=C1C(C(O)c2ccc3c(c2)OCCO3)CCCCN1C/C=C/c1ccccc1` (mixture of isomers), the inhibition at 0.1 µM in test [1] is < 49%. In addition, the inhibition at 1 µM in test [2] is > 90%. In addition, in test [3], the inhibition at 0.01 µM was < 49%. Further, the inhibition at 0.001 µM in test [4] is < 49%.

Consider `O=C1C(C(O)c2ccc3c(c2)OCCO3)Cc2ccccc2N1C/C=C/c1ccccc1` (mixture of isomers), for which the inhibition at 0.1 µM in test [1] is < 49%. The inhibition at 1 µM in test [2] was < 49%. Moreover, the inhibition at 0.01 µM in test [3] was < 49%. In addition, in test [4], the inhibition at 0.001 µM is < 49%.

`COc1c(C(O)C2CCCN(Cc3ccccc3)C2=O)ccc2c1OCCO2` (mixture of isomers): the inhibition at 0.1 µM in test [1] was < 49%. In test [2], the inhibition at 1 µM was > 90%. In test [3], the inhibition at 0.01 µM is < 49%. For the same molecule, the inhibition at 0.001 µM in test [4] is < 49%.

Consider `O=C1C(C(O)c2ccc3c(c2)OCC(COCc2ccccc2)O3)CCCN1Cc1ccccc1` (mixture of isomers), for which the inhibition at 0.1 µM in test [1] was 50%. In test [2], the inhibition at 1 µM is > 90%. The inhibition at 0.01 µM in test [3] is < 49%. Also, the inhibition at 0.001 µM in test [4] is < 49%.

Consider `CCOCC1COc2cc(C(O)C3CCCN(Cc4ccccc4)C3=O)ccc2O1` (mixture of isomers), for which the inhibition at 0.1 µM in test [1] worked out at 50%. Moreover, the inhibition at 1 µM in test [2] amounted to 50%. The inhibition at 0.01 µM in test [3] was < 49%. In addition, the inhibition at 0.001 µM in test [4] was < 49%.

In the case of `COCC1COc2cc(C(O)C3CCCN(Cc4ccccc4)C3=O)ccc2O1` (mixture of isomers), in test [1], the inhibition at 0.1 µM is > 90%. Besides, the inhibition at 1 µM in test [2] was > 90%. In test [3], the inhibition at 0.01 µM was < 49%. For the same molecule, in test [4], the inhibition at 0.001 µM was < 49%.

With `O=C1C(C(O)c2ccc3c(c2)OCC(c2ccccc2)O3)CCCN1Cc1ccccc1` (mixture of isomers), the inhibition at 0.1 µM in test [1] is < 49%. In addition, the inhibition at 1 µM in test [2] is < 49%. Further, the inhibition at 0.01 µM in test [3] was < 49%. The inhibition at 0.001 µM in test [4] was < 49%.

In the case of `O=C1C(C(O)c2ccnc3ccccc23)CCCN1Cc1ccccc1` (mixture of isomers), the inhibition at 0.1 µM in test [1] is < 49%. The inhibition at 1 µM in test [2] is > 90%. Besides, in test [3], the inhibition at 0.01 µM was < 49%. In test [4], the inhibition at 0.001 µM was < 49%.

In the case of `O=C1C(C(O)c2cnc3ccccc3c2)CCCN1Cc1ccccc1` (mixture of isomers), the inhibition at 0.1 µM in test [1] is < 49%. For the same molecule, in test [2], the inhibition at 1 µM is < 49%. In test [3], the inhibition at 0.01 µM was < 49%. In test [4], the inhibition at 0.001 µM is < 49%.

Take `O=C1C(C(O)c2ccc3ccccc3n2)CCCN1Cc1ccccc1` (mixture of isomers): in test [1], the inhibition at 0.1 µM was < 49%. The inhibition at 1 µM in test [2] was > 90%. Moreover, the inhibition at 0.01 µM in test [3] was < 49%. Besides, the inhibition at 0.001 µM in test [4] is < 49%.

For the molecule `O=C1C(C(O)c2ccncc2)CCCN1Cc1ccccc1` (mixture of isomers), the inhibition at 0.1 µM in test [1] is < 49%. Moreover, the inhibition at 1 µM in test [2] was < 49%. In addition, in test [3], the inhibition at 0.01 µM was < 49%. In addition, the inhibition at 0.001 µM in test [4] is < 49%.

For the molecule `O=C1C(C(O)c2cccnc2)CCCN1Cc1ccccc1` (mixture of isomers), the inhibition at 0.1 µM in test [1] is < 49%. The inhibition at 1 µM in test [2] came out at 50%. For the same molecule, the inhibition at 0.01 µM in test [3] is < 49%. Moreover, in test [4], the inhibition at 0.001 µM is < 49%.

On to `O=C1C(C(O)c2ccccn2)CCCN1Cc1ccccc1` (mixture of isomers), for which the inhibition at 0.1 µM in test [1] was < 49%. Also, the inhibition at 1 µM in test [2] is < 49%. Further, in test [3], the inhibition at 0.01 µM is < 49%. In addition, the inhibition at 0.001 µM in test [4] is < 49%.

For `O=C1C(C(O)c2ccc3ccccc3c2)CCCN1Cc1ccccc1` (mixture of isomers), the inhibition at 0.1 µM in test [1] is < 49%. Further, in test [2], the inhibition at 1 µM is < 49%. In test [3], the inhibition at 0.01 µM is < 49%. Besides, the inhibition at 0.001 µM in test [4] was < 49%.

In the case of `O=C1C(C(O)c2ccc(O)c(O)c2)CCCN1Cc1ccccc1` (mixture of isomers), the inhibition at 0.1 µM in test [1] was < 49%. Moreover, the inhibition at 1 µM in test [2] amounted to 50%. Moreover, the inhibition at 0.01 µM in test [3] was < 49%. Besides, the inhibition at 0.001 µM in test [4] is < 49%.

As for `COc1ccc(C(O)C2CCCN(Cc3ccccc3)C2=O)c(OC)c1` (mixture of isomers), the inhibition at 0.1 µM in test [1] was < 49%. Further, the inhibition at 1 µM in test [2] was < 49%. Further, in test [3], the inhibition at 0.01 µM is < 49%. In addition, the inhibition at 0.001 µM in test [4] was < 49%.

In the case of `COc1ccc(C(O)C2CCCN(Cc3ccccc3)C2=O)cc1OC` (mixture of isomers), in test [1], the inhibition at 0.1 µM was 50%. Moreover, the inhibition at 1 µM in test [2] was > 90%. Also, the inhibition at 0.01 µM in test [3] was < 49%. Besides, the inhibition at 0.001 µM in test [4] was < 49%.

For the molecule `O=C1C(C(O)c2cccc(Oc3ccccc3)c2)CCCN1Cc1ccccc1` (mixture of isomers), the inhibition at 0.1 µM in test [1] is < 49%. Moreover, the inhibition at 1 µM in test [2] worked out at 50%. For the same molecule, the inhibition at 0.01 µM in test [3] was < 49%. The inhibition at 0.001 µM in test [4] was < 49%.

`O=C1C(C(O)c2ccc(Oc3ccccc3)cc2)CCCN1Cc1ccccc1` (mixture of isomers): the inhibition at 0.1 µM in test [1] is < 49%. For the same molecule, in test [2], the inhibition at 1 µM is < 49%. The inhibition at 0.01 µM in test [3] is < 49%. In test [4], the inhibition at 0.001 µM was < 49%.

`O=C1C(C(O)c2ccc(Cl)cc2Cl)CCCN1Cc1ccccc1` (mixture of isomers): the inhibition at 0.1 µM in test [1] is < 49%. For the same molecule, in test [2], the inhibition at 1 µM was 50%. In addition, in test [3], the inhibition at 0.01 µM is < 49%. The inhibition at 0.001 µM in test [4] is < 49%.

Regarding `O=C1C(C(O)c2ccc(Cl)c(Cl)c2)CCCN1Cc1ccccc1` (mixture of isomers), the inhibition at 0.1 µM in test [1] is < 49%. Further, in test [2], the inhibition at 1 µM came out at 50%. In addition, in test [3], the inhibition at 0.01 µM was < 49%. Further, in test [4], the inhibition at 0.001 µM is < 49%.

With `O=C1C(C(O)c2cccc3ccccc23)CCCN1Cc1ccccc1` (mixture of isomers), the inhibition at 0.1 µM in test [1] is < 49%. Besides, in test [2], the inhibition at 1 µM was < 49%. For the same molecule, in test [3], the inhibition at 0.01 µM was < 49%. Also, the inhibition at 0.001 µM in test [4] was < 49%.

As to `COc1cc2c(cc1C(O)C1CCCN(Cc3ccccc3)C1=O)OCCO2` (mixture of isomers), the inhibition at 0.1 µM in test [1] was determined as 50%. Moreover, in test [2], the inhibition at 1 µM was 50%. In test [3], the inhibition at 0.01 µM is < 49%. Besides, the inhibition at 0.001 µM in test [4] was < 49%.

For the molecule `COc1cc(C(O)C2CCCN(Cc3ccccc3)C2=O)cc2c1OCCO2` (mixture of isomers), in test [1], the inhibition at 0.1 µM is < 49%. Also, in test [2], the inhibition at 1 µM was 50%. Also, the inhibition at 0.01 µM in test [3] is < 49%. Also, the inhibition at 0.001 µM in test [4] was < 49%.

The inhibition is how much of the control response was suppressed.
